Columns and labels:
[1] = test system: bacterial protein synthesis (E. coli S30 extract); test: E. coli cell-free transcription-translation (TnT) S30 system, firefly luciferase synthesis; conditions: read-out: IC50 of inhibition of firefly luciferase synthesis, ribosomes 600 nM
E. coli ATCC 25922/WT = test: Conventional antibacterial screen; type: cell-based
S. pneumoniae 117-20B/WT = test: Conventional antibacterial screen; type: cell-based
[2] = test system: S. pneumoniae 120-1037B/-ermB/mefA; test: Conventional antibacterial screen; type: cell-based
[3] = test system: S. pyogenes 089-14217A/ermB; test: Conventional antibacterial screen; type: cell-based
[4] = test system: S. pyogenes 129-7129A/ermA; test: Conventional antibacterial screen; type: cell-based
S. aureus 024-11A/WT = test: Conventional antibacterial screen; type: cell-based
E. coli 122-5930A/WT = test: Conventional antibacterial screen; type: cell-based
M. luteus ATCC 9341/WT = test: Conventional antibacterial screen; type: cell-based
[5] = test system: S. pneumoniae ATCC 49619/WT; test: Conventional antibacterial screen; type: cell-based
S. aureus BAA-977/ermA = test: Conventional antibacterial screen; type: cell-based
[6] = test system: S. pneumoniae 014-4331A/mefA; test: Conventional antibacterial screen; type: cell-based
[7] = test system: S. pneumoniae 007-4589A/ermB; test: Conventional antibacterial screen; type: cell-based
S. pyogenes ATCC 19615 = test: Conventional antibacterial screen; type: cell-based
S. aureus ATCC 29213/WT = test: Conventional antibacterial screen; type: cell-based
S. aureus D-5/ermA = test: Conventional antibacterial screen; type: cell-based
[8] = test system: Streptococcus pneumoniae Pen^R, Tel^1/^R, Mac^R; test: MIC against streptococci clinical isolates (Table 3); type: cell-based; conditions: S. pneumoniae Pen^R, 12 strains, constitutive ermB
[9] = test system: Streptococcus pyogenes Tel^S, Mac^S; test: as above; type: cell-based; conditions: 10 strains
[10] = test system: Streptococcus pyogenes Tel^R, Mac^R; test: as above; type: cell-based; conditions: S. pyogenes Tel^R, Mac^R; 9 strains (8 ermB, 1 ermA, constitutive)
[11] = test system: Streptococcus pneumoniae Pen^S, Tel^S, Mac^S; test: as above; type: cell-based; conditions: 10 strains
[12] = test system: 2058-dimethylated ribosomes isolated from the S. aureus N315 strain; test: RNA footprinting of A2058-dimethylated (Erm-modified) ribosomes from S. aureus N315; type: binding; conditions: S. aureus N315 ribosomes dimethylated at A2058, drugs at 100 μM
Experimental: (§1) Ribosome chemical probing. rRNA probing was done following standard protocols (Merryman, C., and H. F. Noller. 1998. Footprinting and modification-interference analysis of binding sites on RNA, p. 237-253. In C. W. J. Smith (ed.), RNA:Protein Interactions, A Practical Approach. Oxford University Press, Oxford), with minor modifications. Briefly, 200 nM ribosomes were incubated with 100 μM antibiotic in 50 μL of buffer B (80 mM HEPES-KOH [pH 7.8], 20 mM MgCl2, 100 mM NH4Cl, 1.5 mM dithiothreitol) for 10 min at 37° C., followed by 10 min at 20° C. Modifying reagents (dimethyl sulfate [DMS], kethoxal, or 1-cyclohexyl-3-(2-morpholinoethyl)carbodiimide metho p-toluene sulfonate [CMCT]) were added and the modification reaction was carried out for 10 min at 37° C. After quenching the reaction and ethanol precipitation, rRNA was extracted and the distribution of modified nucleotides was assessed by primer extension.
Interaction of CEM-101 with S. aureus ribosomes dimethylated at A2058 by Erm-methyltransferase. Erm-methyltransferase modifies A2058 in 23S rRNA by consecutively adding two methyl groups to the exocyclic amino group of the adenine base. Such modification completely blocks binding of erythromycin and similar macrolides, whereas its effect on binding of ketolides is less clear (Douthwaite, S., L. H. Hansen, and P. Mauvais. 2000. Macrolide-ketolide inhibition of MLS-resistant ribosomes is improved by alternative drug interaction with domain R of 23S rRNA. Mol. Microbiol. 36:183-193; Liu, M., and S. Douthwaite. 2002. Activity of the ketolide telithromycin is refractory to Erm monomethylation of bacterial rRNA. Antimicrob. Agents Chemother. 46:1629-1633). Therefore, interaction of CEM-101 with the ribosomes isolated from a clinical S. aureus strain N315, which carries five chromosomal copies of constitutively expressed ermA gene present in the Tn554 transposon (Kuroda, M., T. Ohta, I. Uchiyama, T. Baba, H. Yuzawa, I. Kobayashi, L. Cui, A. Oguchi, K. Aoki, Y. Nagai, J. Lian, T. Ito, M. Kanamori, H. Matsumaru, A. Maruyama, H. Murakami, A. Hosoyama, Y. Mizutani-Ui, N. K. Takahashi, T. Sawano, R. Inoue, C. Kaito, K. Sekimizu, H. Hirakawa, S. Kuhara, S. Goto, J. Yabuzaki, M. Kanehisa, A. Yamashita, K. Oshima, K. Furuya, C. Yoshino, T. Shiba, M. Hattori, N. Ogasawara, H. Hayashi, and K. Hiramatsu. 2001. Whole genome sequencing of meticillin-resistant Staphylococcus aureacs. Lancet 357:1225-1240) was investigated.
Footprinting analysis was used to test interactions of ketolides (CEM-101 and telithromycin) and cladinose-containing macrolides (CEM-103 and erythromycin) with the 2058-dimethylated ribosomes isolated from the S. aureus N315 strain. Ribosomes were incubated with the drugs (present at 100 μM concentration) and probed by DMS modification. Because dimethylated A2058 blocks progression of reverse transcriptase along the RNA template, a strong reverse transcriptase stop is observed at A2058 on the primer extension gel (Vester, B., and S. Douthwaite. 1994. Domain V of 23S rRNA contains all the structural elements necessary for recognition by the ErmE methyltransferase. J. Bacteriol. 176:6999-7004; Zhong, P., Z. Cao, R. Hammond, Y. Chen, J. Beyer, V. D. Shortridge, L. Y. Phan, S. Pratt, J. Capobianco, K. A. Reich, R. K. Flamm, Y. S. Or, and L. Katz. 1999. Induction of ribosome methylation in MLS-resistant Streptococcus pneumoniae by macrolides and ketolides. Microb. Drug Resist. 5:183-188). Therefore, it is impossible to use footprinting to evaluate interactions of macrolides with this position in the S. aureus N315 ribosomes. […]

[13] = test system: E. coli ribosomes (23S rRNA); test: RNA footprinting (ribosome chemical probing), wild-type E. coli ribosomes; type: binding; conditions: 100 μM antibiotic; for Protection of A752 from DMS modification: E. coli ribosomes
Experimental: as §1
(§2) Interactions of CEM-101 with wild-type E. coli and S. aureus ribosomes in solution. […] 1987. Chloramphenicol, erythromycin, carbomycin and vernamycin B protect overlapping sites in the peptidyl transferase region of 23S ribosomal RNA. Biochimie 69:879-884). Also included in this study was a C3-cladinose cousin of CEM-101, CEM-103, which lacks the C2-linked fluorine atom.

[14] = test system: S. aureus ribosomes (23S rRNA); test: RNA footprinting (ribosome chemical probing), wild-type S. aureus ribosomes; type: binding; conditions: 100 μM antibiotic; for Protection of A752 from DMS modification: S. aureus ribosomes
Experimental: as §1, §2

Row | Molecule | IC50 [1] [nM] | Screening result (E. coli ATCC 25922/WT) | Screening result (S. pneumoniae 117-20B/WT) | Screening result [2] | Screening result [3] | Screening result [4] | Screening result (S. aureus 024-11A/WT) | Screening result (E. coli 122-5930A/WT) | Screening result (M. luteus ATCC 9341/WT) | Screening result [5] | Screening result (S. aureus BAA-977/ermA) | Screening result [6] | Screening result [7] | Screening result (S. pyogenes ATCC 19615) | Screening result (S. aureus ATCC 29213/WT) | Screening result (S. aureus D-5/ermA) | Protection of A2059 from DMS modification (binding to Erm-modified ribosome) [12] | Protection of G2505 from kethoxal modification [12] | Protection of U2609 from modification with CMCT [12] | Protection of A752 from DMS modification [13] | further results
1 | CC[C@H]1OC(=O)[C@H](C)[C@@H](O[C@H]2C[C@@](C)(OC)[C@@H](O)[C@H](C)O2)[C@H](C)[C@@H](O[C@@H]2O[C@H](C)C[C@H](N(C)C)[C@H]2O)[C@](C)(O)C[C@@H](C)CN(C)[C@H](C)[C@@H](O)[C@]1(C)O [azithromycin] | 300 |  |  |  |  |  |  |  |  |  |  |  |  |  |  |  |  |  |  |  | 
2 | CC[C@H]1OC(=O)[C@@](C)(F)C(=O)[C@H](C)[C@@H](OC2O[C@H](C)C[C@H](N(C)C)[C@H]2O)[C@@](C)(OC)C[C@@H](C)C(=O)[C@H](C)[C@H]2N(CCCCn3cc(Cc4c[nH]c5ccccc45)nn3)C(=O)O[C@]12C (stereo partly shown) [CEM-219, 2-fluoro-5-O-desosaminyl-11-N-[4-[4-(indol-3-ylmethyl)[1,2,3]triazol-1-yl]butyl]-6-O-methyl-3-oxo-erythronolide A 11,12-cyclic carbamate] |  | >16 | ≦0.015 | 0.12 | 0.5 | ≦0.015 | 0.5 | >16 | ≦0.015 | ≦0.015 | 0.25 | 0.5 | ≦0.015 | ≦0.015 | 0.25 | >16 |  |  |  |  | 
3 | 11-N-[4-[4-(3-aminophenyl)[1,2,3]triazol-1-yl]butyl]-5-O-desosaminyl-6-O-methyl-3-oxo-erythronolide A 11,12-cyclic carbamate [CEM-Des-F] |  |  |  |  |  |  |  |  |  |  |  |  |  |  |  |  |  |  |  |  | MIC50 [8]: 4 µg/mL; MIC90 [8]: 4 µg/mL; MIC50 [9]: 0.03 µg/mL; MIC90 [9]: 0.03 µg/mL; MIC50 [10]: 2 µg/mL; MIC90 [10]: 2 µg/mL; MIC50 [11]: 0.03 µg/mL; MIC90 [11]: 0.03 µg/mL
4 | CC[C@H]1OC(=O)[C@H](C)C(=O)[C@H](C)[C@@H](OC2O[C@H](C)C[C@H](N(C)C)[C@H]2O)[C@@](C)(OC)C[C@@H](C)C(=O)[C@H](C)[C@H]2N(CCCCn3cc(Cc4c[nH]c5ccccc45)nn3)C(=O)O[C@]12C (stereo partly shown) [CEM-199, 5-O-desosaminyl-11-N-[4-[4-(indol-3-ylmethyl)[1,2,3]triazol-1-yl]butyl]-6-O-methyl-3-oxo-erythronolide A 11,12-cyclic carbamate] |  | 16 | 0.06 | 0.5 | 1 | 0.12 | 0.5 | 16 | 0.06 | 0.06 | 0.5 | 1 | 0.12 | 0.06 | 0.5 | >16 |  |  |  |  | 
5 | 11-N-[4-[4-(3-aminophenyl)[1,2,3]triazol-1-yl]butyl]-6-O-methylerythromycin A 11,12-cyclic carbamate [CEM-103] |  |  |  |  |  |  |  |  |  |  |  |  |  |  |  |  | protection of A2059 from DMS modification | partially protected | fully protected | strongly protects | Protection of A2058 and A2059 in domain V of 23S rRNA from modification with DMS ([13]; E. coli wild-type ribosomes): protect; Protection of A752 from DMS modification [14]: strongly protects; Protection of A2058 and A2059 in domain V of 23S rRNA from modification with DMS ([14]; S. aureus wild-type ribosomes): protect
6 | CC[C@H]1OC(=O)[C@H](C)C(=O)[C@H](C)[C@@H](O[C@@H]2O[C@H](C)C[C@H](N(C)C)[C@H]2O)[C@](C)(OC)C[C@@H](C)C(=O)[C@H](C)[C@H]2N(CCCCn3cnc(-c4cccnc4)c3)C(=O)O[C@]12C [telithromycin] | 500 |  |  |  |  |  |  |  |  |  |  |  |  |  |  |  | protected A2059 but to a lesser extent than CEM-101 or CEM-103 | notably weaker protection | notably weaker protection | strongly protects | Protection of A752 from DMS modification [14]: strongly protects
